“Also recorded” adds a separate entry of the source. Structures can show the parent of a compound that is named as a salt. Where two headings read alike, the source gives them in different places.
Assays:
[1] = Surface normalized dissolution of ASD tablets (release, limit of congruency); assay type: physicochemical; details: for limit of congruency (LoC) of ATZ-PVPVA ASDs: ASD containing 5% w/w of the plasticizer; for limit of congruency (LoC) of LED-PVPVA ASDs: ASD containing 10% w/w of the plasticizer; for increase in LoC of ATZ versus binary ASD / normalized release rate of drug and polymer versus neat PVPVA: ATZ-PVPVA ASD; for release of LED / total release of LED: LED 10% DL; for increase in LoC of LED versus binary ASD: LED-PVPVA ASD; for dissolution rate of PVPVA containing plasticizer versus neat PVPVA: PVPVA with 10% w/w plasticizer, no drug; for normalized release rate of drug and polymer versus neat PVPVA: ATZ 10 DL+GTA, ATZ 25DL+GTB; for lag time in the release profile: ATZ-PVPVA ASD at the LoC (20% DL TEC, 25% DL TEAC and TBAC)
Procedure: All dissolution experiments were conducted in 50 mM phosphate buffer pH 6.8 prepared by dissolving 3.52 g of sodium phosphate monobasic monohydrate and 3.48 g of sodium phosphate dibasic anhydrous to 1L with Milli-Q water. The pH was adjusted to pH 6.8 if needed using HCl or NaOH.
Surface normalized dissolution was employed to evaluate the release performance of the ASDs and to calculate the normalized release rate. A Hanson Vision G2 dissolution tester with a Vision heater (Teledyne Hanson Chatsworth, CA) was utilized. A tablet was prepared immediately prior to the dissolution test by compressing 100 mg of ASD in an 8 mm die at 2 500 psi for 60 seconds yielding a tablet surface are of 50 mm^2. The temperature was maintained at 37° C., the rotation speed was 100 rpm, and the dissolution medium was 50 mM phosphate buffer pH 6.8 degassed and pre-equilibrated at 37° C. 100 to 200 μl of sample was withdrawn every 5 min for the initial 20 minutes, then every 10 minutes until 60 minutes and finally at 75, 90 and 120 minutes. The medium was replenished after each sample withdrawal to maintain a constant volume.
The concentration of API and polymer during the dissolution was assessed by high performance liquid chromatography (HPLC) using an Agilent 1100 system (Agilent Technologies, Santa Clara, Calif.). An Ascentis® Express C18 10 cm×3 mm with 2.7 μm particle size column (Sigma-Aldrich St. Louis, Mo.) was employed for separation of ATZ, RTV, and LED. […] For ATZ and LED, the mobile phase was aqueous TFA 0.1% v/v:acetonitrile (ACN) 6:4 v/v at a flow rate of 0.5 ml/min, injection volume 10 detection wavelength (X.) 210 nm, and column temperature 40° C. For RTV, the mobile phase was aqueous TFA 0.1% v/v:ACN 6:4 v/v, flow rate 0.5 ml/min, injection volume 10 detection λ 241 nm and column temperature 40° C.
The surface normalized dissolution rate (R) was calculated based on the mg released versus time profile. The slope from cumulative mg release vs time represents the release rate (k). To normalize, k was divided by the tablet surface area (S, 0.5 cm^2) times the fraction of the component (x) (Equation 1)

[2] = Dynamic vapor sorption (DVS), isothermal water sorption; assay type: physicochemical; details: for effect of plasticizer on polymer (PVPVA) water sorption: PVPVA containing GTB or TBC
Procedure: The isothermal water sorption at 37° C. was measured for selected ASDs using a DVS-Advantage device (Surface Measurement System Ltd Allentown, Pa.). Around 5 mg of sample was first dried at 0% relative humidity (RH) and 37° C. for one hour followed by exposure to 95% RH and 37° C. for at least 8 hours. Percent of water sorbed and derivative of percent mass over time (dm/dT %) was analyzed.

[3] = API:plasticizer 8:1 miscibility and Tg depression by DSC; assay type: physicochemical
Procedure: API:plasticizer at a ratio 8:1 was prepared by rotary evaporation to evaluate miscibility and Tg depression produced by the plasticizer. 3 to 5 mg was accurately weighed in an aluminum pan with a hermetic lid with a pinhole. Since the Tg was evaluated after only 1 hour of vacuum drying to avoid crystallization, a second drying was done by employing an isothermal hold at 20° C. in the DSC with nitrogen flow for at least 20 minutes. Then, the sample was cooled to −60 and heated at 2° C./min to 210° C. with a modulation period +/−1° C. every 60 seconds.

[4] = literature; cited from earlier work
[5] = Glass transition temperature (Tg) by DSC; assay type: physicochemical; details: for Tg of the API: neat API (dry Tg); for reduction of ASD Tg on increasing plasticizer from 5 to 10% w/w: LED 10% DL
Procedure: Glass transition temperature and plasticizer-API miscibility was determined using a TA Q2000 differential scanning calorimeter (DSC) (TA Instruments, New Castle, DE) with a refrigerated cooling accessory (RCS) using N2 as the purge gas at a flow of 50 ml/min. For Tg determination, around 5 mg of sample was accurately weighed into an aluminum pan with a Tzero lid and subject to a cool-heat-cool cycle. Samples were cooled at -20° C. and heated up to 220° C. The heating was done in modulated mode at a heating rate of 2° C/min with a modulation period of +/−1° C. every 60 seconds. The midpoint temperature of the heat capacity change in the thermogram from the second heating cycle scan was taken as the Tg. The DSC was calibrated with indium at the appropriate heating rate.

[6] = 20% DL ATZ ternary ASD, 5% w/w plasticizer, 95% RH/37° C.

SMILES: CCCCOC(=O)CC(O)(CC(=O)OCCCC)C(=O)OCCCC [TBC, Tri-n-butyl citrate]
- release from RTV-PVPVA ASD ([1]; 30% DL, 5% w/w plasticizer): Complete release
- release from RTV-PVPVA ASD ([1]; 35% DL, 5% w/w plasticizer): not at 35% DL
- limit of congruency (LoC) of ATZ-PVPVA ASDs [1]: 25 % DL
- limit of congruency (LoC) of LED-PVPVA ASDs [1]: 15 % DL
- increase in LoC of ATZ versus binary ASD ([1]; 5% w/w plasticizer): 5 fold
- release of LED ([1]; 10% w/w plasticizer): complete drug release
- increase in LoC of LED versus binary ASD ([1]; 10% w/w plasticizer): 3 fold
- dissolution rate of PVPVA containing plasticizer versus neat PVPVA [1]: as much as twice; also recorded: faster dissolution rate
- water uptake versus binary 20% DL ATZ ASD [2, 6]: slight increase in water uptake
- water uptake at 10, 20 and 30% DL ([2]; ATZ ternary ASD containing 5% w/w TBC): similar
- effect of plasticizer on polymer (PVPVA) water sorption [2]: dramatically reduced

SMILES: COC(=O)N[C@H](C(=O)N[C@@H](Cc1ccccc1)[C@@H](O)CN(Cc1ccc(-c2ccccn2)cc1)NC(=O)[C@@H](NC(=O)OC)C(C)(C)C)C(C)(C)C [ATZ, atazanavir]
- Tg ([3]; ATZ:plasticizer 8:1 amorphous mix): 105.5 °C
- limit of congruency (LoC) of PVPVA-based ASD, reported [4]: ~5 % DL

SMILES: CCCC(=O)OCC(COC(=O)CCC)OC(=O)CCC [GTB, Glycerol tributyrate]
- release from RTV-PVPVA ASD ([1]; 30% DL, 5% w/w plasticizer): Complete release
- release from RTV-PVPVA ASD ([1]; 35% DL, 5% w/w plasticizer): not at 35% DL
- limit of congruency (LoC) of ATZ-PVPVA ASDs [1]: 25 % DL
- limit of congruency (LoC) of LED-PVPVA ASDs [1]: 20 % DL
- increase in LoC of ATZ versus binary ASD ([1]; 5% w/w plasticizer): 5 fold
- normalized release rate of drug and polymer versus neat PVPVA ([1]; 5% w/w plasticizer): faster than that of neat PVPVA
- release of LED ([1]; 10% w/w plasticizer): complete drug release
- increase in LoC of LED versus binary ASD ([1]; 10% w/w plasticizer): 4 fold
- dissolution rate of PVPVA containing plasticizer versus neat PVPVA [1]: as much as twice; also recorded: faster dissolution rate
- water uptake versus binary 20% DL ATZ ASD [2, 6]: more prominent increase of water uptake
- effect of plasticizer on polymer (PVPVA) water sorption [2]: dramatically reduced

SMILES: CC(=O)OCC(CO)OC(C)=O (stereo not shown) [GDA, glycerol diacetate]
- limit of congruency (LoC) of ATZ-PVPVA ASDs [1]: 7.5 % DL

SMILES: OCC(O)CO [glycerol, Glycerol]
- limit of congruency (LoC) of ATZ-PVPVA ASDs [1]: 7.5 % DL
- increase in LoC of ATZ versus binary ASD ([1]; 5% w/w plasticizer): 1.5 fold

SMILES: CC(C)c1nc(CN(C)C(=O)N[C@H](C(=O)N[C@@H](Cc2ccccc2)C[C@H](O)[C@H](Cc2ccccc2)NC(=O)OCc2cncs2)C(C)C)cs1 [RTV, ritonavir, reference compound]
- increase in LoC of RTV versus binary ASD ([1]; RTV-PVPVA ASD with plasticizers GTB and TBC): 1.2 fold
- Tg of the API [5]: 50 °C
- limit of congruency (LoC) of PVPVA-based ASD, reported [4]: 25 % DL

SMILES: COC(=O)N[C@H](C(=O)N1CC2(CC2)C[C@H]1c1nc(-c2ccc3c(c2)C(F)(F)c2cc(-c4ccc5[nH]c([C@@H]6[C@H]7CC[C@H](C7)N6C(=O)[C@@H](NC(=O)OC)C(C)C)nc5c4)ccc2-3)c[nH]1)C(C)C [LED, ledipasvir]
- Tg of the API [5]: 160 °C
- Tg ([3]; LED:plasticizer 8:1 amorphous mix): 162 °C
- limit of congruency (LoC) of PVPVA-based ASD, reported [4]: ~5 % DL

SMILES: O=C(O)CC(O)(CC(=O)O)C(=O)O [citric acid]
- limit of congruency (LoC) of ATZ-PVPVA ASDs [1]: 7.5 % DL
- release of LED ([1]; 5% w/w plasticizer): complete release

SMILES: CCCCOC(=O)CC(CC(=O)OCCCC)(OC(C)=O)C(=O)OCCCC [TBAC, Tributyl-o-acetylcitrate]
- limit of congruency (LoC) of ATZ-PVPVA ASDs [1]: 25 % DL
- lag time in the release profile ([1]; 5% w/w plasticizer): around 20 min

SMILES: CCOC(=O)CC(O)(CC(=O)OCC)C(=O)OCC [TEC, triethyl citrate]
- limit of congruency (LoC) of ATZ-PVPVA ASDs [1]: 20 % DL
- lag time in the release profile ([1]; 5% w/w plasticizer): around 20 min
- total release of LED ([1]; 5% w/w plasticizer): 12%
- reduction of ASD Tg on increasing plasticizer from 5 to 10% w/w [5]: 10 °C
- water uptake versus binary 20% DL ATZ ASD [2, 6]: very similar water uptake as the binary ASD

SMILES: CC(=O)OCC(COC(C)=O)OC(C)=O [GTA, Glycerol triacetate]
- limit of congruency (LoC) of ATZ-PVPVA ASDs [1]: 10 % DL
- normalized release rate of drug and polymer versus neat PVPVA ([1]; 5% w/w plasticizer): faster than that of neat PVPVA

SMILES: Clc1ccc(COC(Cn2ccnc2)c2ccc(Cl)cc2Cl)c(Cl)c1 (stereo not shown) [miconazole]
- limit of congruency (LoC) of PVPVA-based ASD, reported [4]: 25 % DL

SMILES: CCOC(=O)CC(CC(=O)OCC)(OC(C)=O)C(=O)OCC [TEAC, triethyl acetyl citrate]
- limit of congruency (LoC) of ATZ-PVPVA ASDs [1]: 25 % DL
- limit of congruency (LoC) of LED-PVPVA ASDs [1]: 15 % DL
- lag time in the release profile ([1]; 5% w/w plasticizer): around 20 min
- total release of LED ([1]; 5% w/w plasticizer): 20%
- release of LED ([1]; 10% w/w plasticizer): complete drug release
- reduction of ASD Tg on increasing plasticizer from 5 to 10% w/w [5]: 14 °C
- water uptake versus binary 20% DL ATZ ASD [2]: slight increase in water uptake
